Experimental data reported in paper PMC3108608 (Frontiers in Pharmacology, 2011).
Blank lines part the entries; values can stand above or below the molecule they belong to.

Legend:
[1] = tested on: TXB2 formation in LPS-stimulated human whole blood; assay: TXB2 formation in LPS-stimulated human whole blood; type: cell-based; conditions: MK-886 30 μM, MD-52 6 μM; LPS 5 h
[2] = tested on: PGE2 formation in LPS-stimulated human whole blood; assay: PGE2 formation in LPS-stimulated human whole blood; type: cell-based; conditions: controls: MK-886 30 μM, MD-52 6 μM, indomethacin 50 μM, celecoxib 20 μM; LPS 5 h
[3] = tested on: 6-keto PGF1α formation in LPS-stimulated human whole blood; assay: 6-keto PGF1α formation in LPS-stimulated human whole blood; type: cell-based; conditions: MK-886 30 μM, MD-52 6 μM; LPS 5 h
[4] = biological target: 5-lipoxygenase (5-LO); design: method as in Albert et al., 2002; Feisst et al., 2009; conditions: neutrophils; ref Albert et al., 2002; Feisst et al., 2009; read-out: IC50 of leukotriene biosynthesis; cited from earlier work
[5] = tested on: A549 lung carcinoma cells; assay: Apoptosis of A549 cells monitored by cleavage of PARP; type: cell-based; conditions: Homo sapiens, A549, 24 h
Method: (§1) Cells (4 × 10^6 cells) were resuspended in 50 μl PBS buffer pH 7.2, mixed with the same volume of 2 × SDS/PAGE sample loading buffer (20 mM Tris–HCl, pH 8, 2 mM EDTA, 5% (m v^−1) SDS, and 10% (v v^−1) β-mercaptoethanol), and boiled for 5 min at 95°C. Aliquots (20 μl) corresponding to equivalents of 0.8 × 10^6 cells were mixed with 4 μl glycerol/0.1% bromophenol blue (1:1, v v^−1), and proteins were separated by SDS-PAGE. After electroblotting to nitrocellulose membrane (GE Healthcare, Munich, Germany) and blocking with 5% BSA for 1 h at room temperature, membranes were washed and incubated with primary antibodies overnight at 4°C. The membranes were washed and incubated with a 1:1000 dilution of alkaline phosphatase-conjugated immunoglobulin G for 3 h at room temperature. After washing, proteins were visualized with nitro blue tetrazolium and 5-bromo-4-chloro-3-indolylphosphate.
(§2) Cells were harvested after 24 h, total cell lysates were prepared and analyzed for the induction of COX-2 (72 kDa), mPGES-1 (16 kDa) and cleaved PARP (89 kDa) using SDS-PAGE and Western blotting. β-Actin (45 kDa) was used as loading control. Data are representatives of two to three independent experiments.

[6] = tested on: COX-2 expression; assay: Induction of COX-2 in IL-1β-stimulated A549 cells (Western blot); type: cell-based; conditions: Homo sapiens, 24 h, read-out: EC50 of inhibition of COX-2 induction
Method: as §1, §2

[7] = tested on: carrageenan-induced pleurisy; assay: Carrageenan-induced pleurisy in rats; type: in vivo, rat; conditions: 4 h after carrageenan; for PGE2 in exudate: vehicle 1.81 ± 0.16; for Inflammatory cells: vehicle 103.0 ± 15.4
[8] = tested on: A549 cells; assay: cells; conditions: Homo sapiens, A549, 24 h, read-out: EC50 of reduction of cell viability
[9] = tested on: COX-2; design: method as in Albert et al., 2002; Feisst et al., 2009; conditions: monocytic Mono Mac 6 cells; ref Albert et al., 2002; Feisst et al., 2009; read-out: COX-2 activity (6-keto PGF1α synthesis), not affected up to; cited from earlier work
[10] = tested on: carrageenan-induced mouse paw edema; assay: Carrageenan-induced paw edema in mice; type: in vivo; conditions: for ED50 paw edema formation: i.p., areas under the curves 2-6 h
Method: Mice were divided into groups (n = 10 for each group) and lightly anesthetized with enflurane 4% mixed with O2, 0.5 l min^−1, N2O 0.5 l min^−1. Each group of animals received subplantar administration of saline (0.05 ml) or of λ-carrageenan type IV 1% (w v^−1, 0.05 ml) in saline. The paw was marked in order to immerge it always at the same extent in the measurement chamber. The volume was measured by using a hydroplethismometer, specially modified for small volumes (Ugo Basile, Milan, Italy), immediately before subplantar injection and 2, 4, and 6 h thereafter (Posadas et al., [2004]). The assessment of paw volume was performed always in double blind and by the same operator. The increase in paw volume was calculated by subtracting the initial paw volume (basal) to the paw volume measured at each time point.

[11] = tested on: COX-1; design: method as in Albert et al., 2002; Feisst et al., 2009; conditions: human platelets; ref Albert et al., 2002; Feisst et al., 2009; cited from earlier work
[12] = tested on: mPGES-1 expression; assay: Induction of mPGES-1 in IL-1β-stimulated A549 cells (Western blot); type: cell-based; conditions: Homo sapiens, 24 h, read-out: EC50 of inhibition of mPGES-1 induction
Method: as §1, §2

[13] = biological target: T1, mPGES-1 (Homo sapiens, UniProt O14684); assay: PGE2 synthase activity in microsomes of IL-1β-stimulated A549 cells; type: biochemical; conditions: for IC50: 15 min pre-incubation at 4°C, 20 μM PGH2, 1 min, read-out: IC50 of PGE2 formation (mPGES-1 activity)
T1 construct: microsomal preparations of IL-1β-stimulated A549 cells, a rich source of mPGES-1; endogenous in cells; host or cells: A549 cells, IL-1β-stimulated, microsomal fraction
T1 sequence (O14684 1-152): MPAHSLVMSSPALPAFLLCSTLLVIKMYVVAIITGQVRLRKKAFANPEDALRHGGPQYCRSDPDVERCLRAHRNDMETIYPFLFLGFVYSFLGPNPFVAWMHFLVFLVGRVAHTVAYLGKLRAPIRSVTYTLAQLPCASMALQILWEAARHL

[14] = tested on: 12-HHT formation (mainly derived from platelet COX-1) in human whole blood; assay: 12-HHT formation in human whole blood (A23187 plus AA); type: cell-based; conditions: indomethacin 20 μM, aspirin 30 μM
[15] = Hyp 4 mg kg^−1 i.p., indomethacin 5 mg kg^−1
[16] = i.p. 30 min before, Hyperforin 4 mg kg^−1, Indomethacin 5 mg kg^−1

SMILES: CC(C)c1ccc2c(c1)c(SC(C)(C)C)c(CC(C)(C)C(=O)O)n2Cc1ccc(Cl)cc1 [MK-886]
effect on TXB2 formation [1]: failed to suppress
effect on PGE2 formation [2]: only partially inhibited
effect on 6-keto PGF1α formation [3]: failed to suppress

SMILES: Cc1ccc(-c2cc(C(F)(F)F)nn2-c2ccc(S(N)(=O)=O)cc2)cc1 [celecoxib]
effect on PGE2 formation [2]: effectively reduced

SMILES: CC(C)=CCCC1(C)C(CC=C(C)C)CC2(CC=C(C)C)C(=O)C1(C(=O)C(C)C)C(=O)C(CC=C(C)C)=C2O (centres unmarked) [Hyp, Hyperforin]
IC50 [4]: 1000 to 2000 nM
EC50 [5]: ~3000 nM
EC50 [6]: 1000 to 3000 nM
attenuation of exudate formation [7, 15]: 64%
PGE2 in exudate [7, 16]: 0.97 ± 0.15 ng/rat
Inflammatory cells [7, 16]: 51.3 ± 7.2 ×10^6
EC50 [8]: ~3000 nM
IC50 [9]: > 30 µM
inhibition of edema formation from areas under the curves (2-6 h) ([10]; 0.25 mg kg^−1 i.p.): 27 % of control
reduction of peak paw edema response at 4 h ([10]; 0.25 mg kg^−1 i.p. 30 min before carrageenan): 35%
inhibition of edema formation from areas under the curves (2-6 h) ([10]; 1 mg kg^−1 i.p.): 49 % of control
reduction of peak paw edema response at 4 h ([10]; 1 mg kg^−1 i.p. 30 min before carrageenan): 63%
inhibition of edema formation from areas under the curves (2-6 h) ([10]; 4 mg kg^−1 i.p.): 76 % of control
reduction of peak paw edema response at 4 h ([10]; 4 mg kg^−1 i.p. 30 min before carrageenan): 78%
ED50 paw edema formation [10]: 1 mg/kg
IC50 [11]: 3000 nM
EC50 [12]: 1000 to 3000 nM

SMILES: Clc1ccccc1-c1nc2c3ccccc3c3ccccc3c2[nH]1 [MD-52, 2-(2-chlorophenyl)-1H-phenanthro[9,10-d]-imidazole]
effect on TXB2 formation [1]: failed to suppress
effect on PGE2 formation [2]: only partially inhibited
effect on 6-keto PGF1α formation [3]: failed to suppress

IC50 [13]: > 10 µM
SMILES: CC(C)=CCC1C(=O)C(C(=O)CC(C)C)=C(O)C(O)(CC=C(C)C)C1=O (centres unmarked) [humulone]

SMILES: CC(C)CCC[C@]1(C)[C@@H](CCC(C)C)C[C@@]2(CCC(C)C)C(=O)[C@]1(C(=O)C(C)C)C(=O)C(CCC(C)C)=C2O [octahydro-hyperforin]
mPGES-1 inhibition compared with Hyp ([13]; 20 μM PGH2): equally effective

SMILES: CC(=O)Oc1ccccc1C(=O)O [aspirin]
effect on 12-HHT formation [14]: almost completely blocked

IC50 [13]: > 10 µM
SMILES: Cc1c(O)cc(O)c(C(=O)C(C)C)c1O [acylphloroglucinol core]

SMILES: COc1ccc2c(c1)c(CC(=O)O)c(C)n2C(=O)c1ccc(Cl)cc1 [indomethacin]
attenuation of cell infiltration [7, 15]: 65%
attenuation of exudate formation [7, 15]: 75%
Exudate volume ([7]; i.p. 30 min before, Hyperforin 4 mg kg^−1, Indomethacin 5 mg kg^−1, vehicle 0.44 ± 0.04): 0.11 ± 0.04 mL
PGE2 in exudate [7, 16]: 0.19 ± 0.05 ng/rat
Inflammatory cells [7, 16]: 35.8 ± 4.2 ×10^6
effect on PGE2 formation [2]: effectively reduced
effect on 12-HHT formation [14]: almost completely blocked
inhibition of edema formation from areas under the curves (2-6 h) ([10]; 5 mg kg^−1 i.p.): 52 % of control
reduction of peak paw edema response at 4 h ([10]; 5 mg kg^−1 i.p. 30 min before carrageenan): 57%
ED50 paw edema formation [10]: 5 mg/kg
